# Laboratory results taken from the supplement of paper PMC10307832.
# Tests used:
# Assay in all cases: relative viability (nuclei count vs DMSO), 5 days (fraction); higher = more cells survive
# [1] = compound: O=c1[nH]cc(F)c(=O)[nH]1 [5-Fluorouracil] + Nc1nc2[nH]cc(CCc3ccc(C(=O)N[C@@H](CCC(=O)O)C(=O)O)cc3)c2c(=O)[nH]1 [Pemetrexed] (partner 0.2 µM)
# In short: (§1)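 Relative viability is defined as nuclei in treated wells over nuclei in vehicle wells. Duplicate plates were run and medians reported. Lung cancer cell lines in 1536-well plates were dosed by pin tool one day after seeding, with one drug or with a fixed anchor-drug dose plus five library-drug doses (not always all listed) in √10 steps, and nuclei were counted after 5 days.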
# [2] = compound: CN[C@@H]1C[C@H]2O[C@@](C)([C@@H]1OC)n1c3ccccc3c3c4c(c5c6ccccc6n2c5c31)C(=O)NC4 [Staurosporine] + CC1(C)CCC(c2ccc(Cl)cc2)=C(CN2CCN(c3ccc(C(=O)NS(=O)(=O)c4ccc(N[C@H](CCN5CCOCC5)CSc5ccccc5)c(S(=O)(=O)C(F)(F)F)c4)cc3)CC2)C1 [Navitoclax] (partner 0.5 µM)
# In short: as §1
# [3] = compound: CN[C@@H]1C[C@H]2O[C@@](C)([C@@H]1OC)n1c3ccccc3c3c4c(c5c6ccccc6n2c5c31)C(=O)NC4 [Staurosporine] + CC(=O)c1c(C)c2cnc(Nc3ccc(N4CCNCC4)cn3)nc2n(C2CCCC2)c1=O [Palbociclib] (partner 0.5 µM)
# In short: as §1
# [4] = compound: CC1=C(CC(=O)O)c2cc(F)ccc2/C1=C\c1ccc([S+](C)[O-])cc1 [Sulindac] + CC1(C)CCC(c2ccc(Cl)cc2)=C(CN2CCN(c3ccc(C(=O)NS(=O)(=O)c4ccc(N[C@H](CCN5CCOCC5)CSc5ccccc5)c(S(=O)(=O)C(F)(F)F)c4)cc3)CC2)C1 [Navitoclax] (partner 0.5 µM)
# In short: as §1
Cell Line,relative viability ([1]; first compound 0.02 µM),relative viability ([1]; first compound 0.2 µM),relative viability ([1]; first compound 0.6325 µM),relative viability ([1]; first compound 2 µM),relative viability ([2]; first compound 0.005 µM),relative viability ([2]; first compound 0.01581 µM),relative viability ([2]; first compound 0.05 µM),relative viability ([2]; first compound 0.1581 µM),relative viability ([2]; first compound 0.5 µM),relative viability ([3]; first compound 0.005 µM),relative viability ([3]; first compound 0.01581 µM),relative viability ([3]; first compound 0.05 µM),relative viability ([3]; first compound 0.1581 µM),relative viability ([3]; first compound 0.5 µM),relative viability ([4]; first compound 0.253 µM),relative viability ([4]; first compound 0.8 µM),relative viability ([4]; first compound 2.53 µM),relative viability ([4]; first compound 8 µM),relative viability ([4]; first compound 0.08 µM)
NCI-H1666,0.922,0.763,0.61,0.548,0.722,0.554,0.395,0.324,0.202,0.63,0.555,0.679,0.482,0.462,0.963,0.793,0.853,1.19,–
LOU-NH91,0.359,0.342,0.317,0.309,0.725,0.455,0.367,0.269,0.249,0.535,0.446,0.475,0.314,0.28,0.772,0.552,0.638,0.748,0.726
LXF-289,0.807,0.704,0.494,0.363,0.944,–,0.263,0.0806,0.14,0.717,0.21,0.16,0.141,0.117,0.97,0.953,0.999,0.965,1
NCI-H1299,–,–,–,–,1.06,0.739,0.459,0.239,0.199,–,–,–,–,–,1.05,1.02,1.05,1.05,1.11
HARA,0.244,0.231,0.212,0.289,–,0.538,0.37,0.157,0.161,0.268,0.236,0.206,0.177,0.118,1.24,–,1.18,1.14,1.21
LU99A,0.185,0.177,0.154,0.171,0.876,0.589,0.359,0.211,0.128,0.366,0.196,0.196,0.211,0.174,0.781,0.689,0.73,0.878,0.964
201T,0.322,0.267,0.274,0.248,1.24,1.18,1.06,0.983,0.761,0.362,–,0.329,0.274,0.285,1.15,1.27,1.16,1.23,1.19
HCC-827,0.238,0.239,0.273,0.262,1.06,–,0.768,0.725,0.488,0.59,0.401,0.299,0.226,0.225,1.02,0.997,0.973,1.08,1.04
NCI-H1703,–,–,–,–,0.293,0.207,0.143,0.132,0.0869,–,–,–,–,–,0.978,0.877,1.1,1.45,1.14
NCI-H1975,0.309,0.28,0.243,0.219,0.611,0.297,0.286,0.215,0.132,0.16,0.124,0.159,0.0883,0.0924,1.24,–,1.21,1.25,1.26
NCI-H2023,0.212,0.129,0.126,0.115,0.715,0.598,0.257,0.159,0.0924,0.234,0.186,0.0972,0.0704,0.0509,0.987,0.987,0.977,1.24,1.37
ChaGo-K-1,0.252,0.262,0.26,0.261,0.926,–,0.79,0.29,0.27,0.886,–,0.811,0.696,0.701,0.925,1.21,0.897,1.56,1.01
COR-L 105,1.2,1.14,0.87,0.614,0.573,0.275,0.258,0.272,0.242,0.365,0.334,0.313,0.282,0.246,0.987,0.901,0.722,0.962,0.591
NCI-H2170,0.363,0.266,0.242,0.255,0.708,0.376,0.421,0.219,0.189,0.43,–,0.314,0.218,0.176,0.638,0.495,0.71,0.6,0.564
A549,–,–,–,–,0.616,0.385,0.123,0.0294,0.0297,–,–,–,–,–,1.29,–,1.21,1.46,1.63
NCI-H460,0.0627,0.0623,0.0575,0.0952,0.949,0.87,0.232,0.0102,0.0078,0.0657,0.0441,0.0429,0.0284,0.0184,1.44,–,1.07,1.3,1.88
NCI-H1993,0.559,0.49,0.577,0.525,1.04,0.645,0.54,0.44,0.435,0.776,0.685,0.526,0.395,0.339,0.917,0.871,0.933,0.88,1.13
Calu-6,–,–,–,–,0.656,0.321,0.233,0.0847,0.0708,–,–,–,–,–,1.04,0.627,0.756,1.21,1.1
SW 900,0.468,0.491,0.518,0.385,–,–,–,–,–,0.376,0.359,0.278,0.201,0.18,–,–,–,–,–
NCI-H322M,0.602,0.598,0.549,0.512,1.36,1.15,0.771,0.586,0.462,0.476,0.386,0.388,0.433,0.467,1.37,1.08,1.27,1.29,1.28
NCI-H2405,1.11,1.12,1.07,0.535,0.132,0.061,0.0985,0.0939,0.0834,0.196,0.172,0.122,–,0.0886,0.9,0.783,0.859,1.11,0.934

Cell Line,relative viability ([1]; first compound 0.02 µM),relative viability ([1]; first compound 0.2 µM),relative viability ([1]; first compound 0.6325 µM),relative viability ([1]; first compound 2 µM),relative viability ([2]; first compound 0.005 µM),relative viability ([2]; first compound 0.01581 µM),relative viability ([2]; first compound 0.05 µM),relative viability ([2]; first compound 0.1581 µM),relative viability ([2]; first compound 0.5 µM),relative viability ([3]; first compound 0.005 µM),relative viability ([3]; first compound 0.01581 µM),relative viability ([3]; first compound 0.05 µM),relative viability ([3]; first compound 0.1581 µM),relative viability ([3]; first compound 0.5 µM),relative viability ([4]; first compound 0.253 µM),relative viability ([4]; first compound 0.8 µM),relative viability ([4]; first compound 2.53 µM),relative viability ([4]; first compound 8 µM),relative viability ([4]; first compound 0.08 µM)
HCC-44,0.641,0.625,0.569,0.471,0.867,0.28,0.215,0.185,0.13,–,–,0.768,0.53,0.41,1.08,0.904,1.15,1.02,1.21
HCC-78,0.924,0.866,0.858,0.915,0.711,0.563,0.553,0.358,0.206,0.502,0.469,0.462,0.472,0.464,0.716,0.711,0.71,0.77,0.784
COR-L23,0.194,0.195,0.194,0.185,0.511,0.3,0.17,0.0578,0.0582,0.218,0.109,0.117,0.103,0.0791,1.09,–,0.964,1.3,1.19
NCI-H2009,1.15,0.968,0.85,0.656,0.42,0.38,0.189,0.19,0.0825,0.147,0.159,0.13,0.0987,0.0664,1.2,1.29,1.18,1.34,1.21
NCI-H3122,0.197,0.181,0.167,0.164,1.04,0.46,0.993,0.672,0.223,0.248,–,0.225,–,0.171,0.999,1.01,0.992,1.05,0.913
NCI-H2228,0.3,0.334,0.39,0.367,0.6,0.399,0.165,0.127,0.0586,0.209,0.215,0.3,0.102,0.0805,0.967,0.839,1.46,1.01,0.937
NCI-H1944,0.523,0.527,0.249,0.179,1.08,–,0.763,0.562,0.359,0.319,0.242,0.223,0.203,0.204,1,1,1.07,1.23,0.958
NCI-H1648,0.816,0.864,0.572,0.332,–,–,–,–,–,0.23,0.227,0.249,0.279,0.258,–,–,–,–,–
NCI-H358,0.177,0.182,0.172,0.169,–,–,–,–,–,0.107,0.081,0.102,0.0861,0.0814,–,–,–,–,–
NCI-H1755,0.509,0.367,0.32,0.295,1.01,0.633,0.253,0.185,0.138,0.395,0.339,0.263,0.253,0.247,1.09,0.821,1.08,1.13,1.17
ABC-1,–,–,–,–,–,–,–,–,–,–,0.224,0.226,0.258,0.193,–,–,–,–,–
NCI-H661,0.998,0.905,0.947,0.883,–,–,–,–,–,0.418,0.337,0.329,0.26,0.192,–,–,–,–,–
LCLC-103H,0.481,0.413,0.464,0.384,–,–,–,–,–,0.507,0.43,0.393,0.29,0.253,–,–,–,–,–
NCI-H650,0.762,0.649,0.36,0.317,–,–,–,–,–,0.262,0.208,0.224,0.234,0.199,–,–,–,–,–
NCI-H1563,0.711,0.924,0.786,0.732,–,–,–,–,–,–,–,–,–,–,–,–,–,–,–
NCI-H596,0.547,0.524,0.486,0.435,1.11,0.665,0.322,0.179,0.0954,–,–,–,–,–,0.953,0.812,1.02,1.13,0.901
NCI-H2342,0.744,0.84,0.776,0.725,–,–,–,–,–,0.507,0.51,0.488,0.433,0.344,–,–,–,–,–
NCI-H522,0.891,1.1,1.03,0.95,–,–,–,–,–,1.19,0.877,–,0.638,0.502,–,–,–,–,–
NCI-H727,–,–,–,–,0.285,0.251,0.265,0.193,0.18,0.649,0.557,0.5,0.447,0.443,0.385,0.381,0.416,0.433,0.32
EBC-1,–,–,–,–,0.252,0.129,0.118,0.11,0.094,–,–,–,–,–,0.387,0.36,0.344,0.431,0.377
IA-LM,–,–,–,–,0.242,–,0.257,0.0433,0.0163,–,–,–,–,–,0.863,–,0.81,0.79,0.696
